As usually defined, the IC50 is the midpoint of a concentration-inhibition curve. A low value points to inhibition by little substance.

The target in the experiment is T1, TrxR1 (thioredoxin reductase 1) (Rattus norvegicus, UniProt O89049).
T1 construct: gene Txnrd1
T1 sequence (O89049 1-499): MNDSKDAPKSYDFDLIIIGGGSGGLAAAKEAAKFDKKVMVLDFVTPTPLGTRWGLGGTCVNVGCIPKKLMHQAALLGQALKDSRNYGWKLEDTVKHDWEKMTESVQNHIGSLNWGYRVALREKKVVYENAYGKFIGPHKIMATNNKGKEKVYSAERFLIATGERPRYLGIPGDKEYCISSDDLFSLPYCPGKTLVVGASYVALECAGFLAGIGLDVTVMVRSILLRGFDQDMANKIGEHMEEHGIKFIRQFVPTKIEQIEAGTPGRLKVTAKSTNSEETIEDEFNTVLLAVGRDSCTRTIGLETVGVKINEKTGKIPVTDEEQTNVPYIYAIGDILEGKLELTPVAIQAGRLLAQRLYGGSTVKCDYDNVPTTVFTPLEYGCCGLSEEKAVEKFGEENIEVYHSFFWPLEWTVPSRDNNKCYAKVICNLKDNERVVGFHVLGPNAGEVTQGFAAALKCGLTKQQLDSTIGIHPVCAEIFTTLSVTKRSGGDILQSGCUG
Kind of experiment: biochemical.
`CC[C@H](C)[C@H](NC(=O)C1CSSC1)C(=O)O` [2g, 2-(1,2-Dithiolane-4-carboxamido)-3-methylpentanoic acid]: the concentration for half-maximal inhibition (IC50) turned out to be 186 ± 14.9 µM.
In turn, `O=C(Nc1cc2ccccc2oc1=O)C1CSSC1` [2j, N-(2-Oxo-2H-chromen-3-yl)-1,2-dithiolane-4-carboxamide] yielded an IC50 of 5.3 ± 0.4 µM.
In turn, `O=C(Nc1ccc2oc(=O)ccc2c1)C1CSSC1` [2k, N-(2-oxo-2H-chromen-6-yl)-1,2-dithiolane-4-carboxamide] gave a 50% inhibitory concentration (IC50) of 36.3 ± 2.9 µM.

(Values after publication PMC10535816, “May 1,2-Dithiolane-4-carboxylic Acid and Its Derivatives Serve as a Specific Thioredoxin Reductase 1 Inhibitor?” (Molecules, 2023).)
